# Measured values reported in the supplement of paper PMC8967900.
# How the values were obtained:
# Assay in all cases: selective drug sensitivity score (sDSS, relative to normal bone marrow) (sDSS (score)); higher = more potent and effective on the cell line relative to normal bone marrow cells
# Details in all cases: 72 h
# MN-60 = test system: MN-60
# COG-LL-319h = test system: COG-LL-319h
# COG-LL-355h = test system: COG-LL-355h
# 697 = test system: 697
# REH = test system: REH
# ALL-SIL = test system: ALL-SIL
# PF-382 = test system: PF-382
# JURKAT = test system: JURKAT
# CCRF-HSB2 = test system: CCRF-HSB2
# TANOUE = test system: TANOUE
# RPMI-8402 = test system: RPMI-8402
# KASUMI-9 = test system: KASUMI-9
# DND-41 = test system: DND-41
# MHH-CALL-2 = test system: MHH-CALL-2
# KASUMI-2 = test system: KASUMI-2
# NALM-16 = test system: NALM-16
# P12-ICHIKAWA = test system: P12-ICHIKAWA
# PEER = test system: PEER
# 380 = test system: 380
# COG-LL-402h = test system: COG-LL-402h
# 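Note: ALL cell lines in 384-well plates, five doses spanning 10,000-fold, each plate scaled between vehicle and 100 µmol/L benzalkonium chloride controls, sDSS an adapted area-under-curve metric.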
Structure (SMILES),selective drug sensitivity score (MN-60),selective drug sensitivity score (COG-LL-319h),selective drug sensitivity score (COG-LL-355h),selective drug sensitivity score 697,selective drug sensitivity score (REH),selective drug sensitivity score (ALL-SIL),selective drug sensitivity score (PF-382),selective drug sensitivity score (JURKAT),selective drug sensitivity score (CCRF-HSB2),selective drug sensitivity score (TANOUE),selective drug sensitivity score (RPMI-8402),selective drug sensitivity score (KASUMI-9),selective drug sensitivity score (DND-41),selective drug sensitivity score (MHH-CALL-2),selective drug sensitivity score (KASUMI-2),selective drug sensitivity score (NALM-16),selective drug sensitivity score (P12-ICHIKAWA),selective drug sensitivity score (PEER),selective drug sensitivity score 380,selective drug sensitivity score (COG-LL-402h)
CCCCNc1ncc(C(=O)NCc2ccc(-n3ccnc3)cc2)c(NC2CCC(O)CC2)n1 (stereo not given) [UNC2881] (top concentration 2500 nM),0,0,0,1,0.2,2.8,0,0,0,0,0,0,0,0,0,0,0,1.5,0,0
CC[C@@H]1CN(C(=O)NCC(F)(F)F)C[C@@H]1c1cnc2cnc3[nH]ccc3n12 [Upadacitinib] (top concentration 10000 nM),-7.16,-7.16,-7.16,-6.06,-7.16,-7.16,-6.06,-6.86,-5.06,-6.86,-7.16,-2.76,0.84,-7.16,-6.56,-7.16,-7.16,-6.66,-0.16,-7.16
O=C(O)CC1CC(c2ccccc2)=NO1 (stereo not given) [VGX-1027] (top concentration 10000 nM),-0.04,-0.04,-0.04,-0.04,-0.04,-0.04,-0.04,-0.04,-0.04,-0.04,-0.04,-0.04,-0.04,-0.04,-0.04,-0.04,-0.04,-0.04,-0.04,-0.04
CCCCC(=O)OCC(=O)[C@]1(O)Cc2c(O)c3c(c(O)c2[C@@H](O[C@H]2C[C@H](NC(=O)C(F)(F)F)[C@H](O)[C@H](C)O2)C1)C(=O)c1c(OC)cccc1C3=O [Valrubicin] (top concentration 5000 nM),-3.92,12.9,2.98,8.58,12.1,-0.72,1.48,4.98,15.6,-12.7,6.88,5.68,-1.02,7.48,8.38,-3.22,8.48,-9.32,13,13.8
CCc1c(C(=O)C(N)=O)c2c(OCC(=O)O)cccc2n1Cc1ccccc1 [Varespladib] (top concentration 10000 nM),-0.84,-0.84,-0.84,-0.84,-0.84,-0.84,-0.84,-0.74,0.36,-0.84,-0.84,-0.84,-0.84,-0.84,-0.84,0.56,-0.84,-0.84,-0.84,6.36
CC1(C)CCC(CN2CCN(c3ccc(C(=O)NS(=O)(=O)c4ccc(NCC5CCOCC5)c([N+](=O)[O-])c4)c(Oc4cnc5[nH]ccc5c4)c3)CC2)=C(c2ccc(Cl)cc2)C1 [Venetoclax] (top concentration 1000 nM),-4.4,28.8,31.2,10.1,0.9,16.5,-4.1,-3.3,-2.9,-4.4,-4.4,25.4,2.1,28.7,22.9,22.6,-2.4,-2.9,29,14.1
CCCCOc1nc(N)c2c(n1)N(Cc1cccc(CN3CCCC3)c1)CC(=O)N2 [Vesatolimod] (top concentration 10000 nM),-2.32,0.38,0.28,-3.42,-3.52,-3.52,-3.52,-3.42,-3.52,-3.32,-3.52,-2.92,-2.12,-3.52,-3.52,-3.52,-3.52,-3.52,-3.52,-3.52
CCC1=C[C@@H]2CN(C1)Cc1c([nH]c3ccccc13)[C@@](C(=O)OC)(c1cc3c(cc1OC)N(C)[C@H]1[C@@](O)(C(=O)OC)[C@H](OC(C)=O)[C@]4(CC)C=CCN5CC[C@]31[C@@H]54)C2 [Vinorelbine] (top concentration 10000 nM),1.68,12.2,5.98,25,26.6,23.6,11,23.5,20.1,-8.32,21,24.2,11.8,19.3,17.8,18.3,15.9,19.8,23.3,22.2
